Results published in patent publication US11234976B2, “Methods of using pyruvate kinase activators” (Agios Pharmaceuticals, Inc., priority 2015, dated 2022).
Where two headings read alike, the source gives them in different places.

What was measured:
[1] = system: recombinantly expressed PKR mutant proteins; experiment: Activation of recombinantly expressed PKR mutant proteins; assay type: biochemical
[2] = system: PKD red cells; experiment: Ex-vivo treatment of PKD red cells; assay type: cell-based, human; conditions: PKD red cells treated ex-vivo
[3] = target: PKR (Mus musculus, UniProt P53657)
Excerpt: Dose levels tested were 1 mpk, 10 mpk, 50 mpk, and 150 mpk. Following the last dose, mice were bled to evaluate drug exposure and pharmacodynamic markers including 2,3-DPG and ATP levels, and PKR activity.

[4] = Drug exposure in mice; assay type: in vivo, C57/BL6 mice; conditions: oral gavage, 1-150 mpk, single dose and multiple dose (13 doses, BID)
Excerpt: Dose levels tested were 1 mpk, 10 mpk, 50 mpk, and 150 mpk. Following the last dose, mice were bled to evaluate drug exposure and pharmacodynamic markers including 2,3-DPG and ATP levels, and PKR activity. […]. […]

[5] = system: PKR reaction; experiment: PKR flux in whole blood from treated mice ([U-13C6]-glucose); assay type: in vivo, C57BL/6 mice; conditions: 100 mpk BID, 13 doses, oral gavage; kinetic flux model
Description: Whole blood was incubated with [U-^13C6]-glucose at 37° C. and the metabolite pool sizes and rate of ^13C label incorporation into glycolytic intermediates were assessed. The data were subsequently analyzed using a mathematical kinetic flux model to quantify the overall change in carbon flow through the PKR reaction.

[6] = SAD study pharmacokinetics in healthy subjects; assay type: in vivo, human; conditions: for half-life: oral
Description: . Key exclusion criteria included glucose 6-phosphate dehydrogenase deficiency, blood donation, blood loss of greater than 500 mL, or transfusion of blood or plasma within three months of screening.

[7] = system: PK-R
Description: (§1) Key exclusion criteria included glucose 6-phosphate dehydrogenase deficiency, blood donation, blood loss of greater than 500 mL, or transfusion of blood or plasma within three months of screening.

[8] = SAD study safety and tolerability; assay type: in vivo, human
Description: as §1

[9] = target: cytochrome P450 3A4 (CYP3A4) (Homo sapiens, UniProt P08684); experiment: Pre-clinical CYP3A4 induction / metabolism; assay type: in vitro ADME
[10] = in vivo
Description: (§2) Adverse events (AEs), laboratory parameters, ECGs, and vital signs were monitored.

[11] = MAD study safety and tolerability; conditions: doses between 360 and 700 not explored
Description: as §2

[12] = MAD study pharmacokinetics in healthy subjects
[13] = system: PK-R; experiment: MAD study pharmacodynamics (blood 2,3-DPG and ATP)
[14] = single oral dose, 1, 10, 50, 150 mpk

Sequence of PKR (P53657 whole entry): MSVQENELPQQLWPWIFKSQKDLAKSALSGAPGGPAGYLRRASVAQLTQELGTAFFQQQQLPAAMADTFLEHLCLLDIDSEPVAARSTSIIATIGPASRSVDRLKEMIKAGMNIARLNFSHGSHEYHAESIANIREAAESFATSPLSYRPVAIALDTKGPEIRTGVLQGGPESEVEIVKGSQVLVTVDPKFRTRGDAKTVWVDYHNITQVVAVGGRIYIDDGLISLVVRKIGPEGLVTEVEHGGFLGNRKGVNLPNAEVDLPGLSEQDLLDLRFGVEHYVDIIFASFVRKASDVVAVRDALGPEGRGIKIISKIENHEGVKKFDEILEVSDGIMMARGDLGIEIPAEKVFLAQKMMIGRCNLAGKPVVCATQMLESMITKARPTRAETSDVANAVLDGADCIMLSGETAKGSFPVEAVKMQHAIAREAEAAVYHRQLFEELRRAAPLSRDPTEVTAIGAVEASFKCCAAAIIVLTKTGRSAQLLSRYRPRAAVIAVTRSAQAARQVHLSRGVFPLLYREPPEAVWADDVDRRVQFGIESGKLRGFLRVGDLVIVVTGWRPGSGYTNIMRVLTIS
Sequence of cytochrome P450 3A4 (CYP3A4) (P08684 whole entry): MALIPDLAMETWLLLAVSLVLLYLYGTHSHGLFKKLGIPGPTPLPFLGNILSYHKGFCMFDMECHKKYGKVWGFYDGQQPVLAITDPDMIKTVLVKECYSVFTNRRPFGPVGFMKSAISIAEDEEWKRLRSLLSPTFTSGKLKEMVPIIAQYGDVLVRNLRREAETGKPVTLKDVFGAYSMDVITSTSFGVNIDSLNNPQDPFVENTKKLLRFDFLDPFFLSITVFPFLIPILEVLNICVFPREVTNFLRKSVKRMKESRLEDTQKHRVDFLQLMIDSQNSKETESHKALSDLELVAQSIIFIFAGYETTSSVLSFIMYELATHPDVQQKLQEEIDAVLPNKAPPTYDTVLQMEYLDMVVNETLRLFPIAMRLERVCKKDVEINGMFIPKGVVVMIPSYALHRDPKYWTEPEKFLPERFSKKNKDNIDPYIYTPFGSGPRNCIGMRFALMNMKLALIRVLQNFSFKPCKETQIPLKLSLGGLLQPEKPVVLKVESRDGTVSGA

In the case of `O=C(c1ccc(NS(=O)(=O)c2cccc3cccnc23)cc1)N1CCN(CC2CC2)CC1` [Compound 1, N-(4-(4-(cyclopropylmethyl)piperazine-1-carbonyl)phenyl)quinoline-8-sulfonamide], the “activity of mutated PK-R enzymes” value ([1]; pre-clinical studies) was “increases the activity”, the “protein stability of PKR mutant proteins” value ([1]; recombinantly expressed PKR mutants associated with PKD) was “enhances the protein stability” and the “2,3-DPG levels” value [2] was “reduced 2,3-DPG levels”. The ATP levels [2] was “increased ATP levels”, the “PKR enzyme activity levels” value [2] was “increased PKR enzyme activity levels” and the “ATP levels in whole blood” value ([3]; multiple doses (13 doses, BID), 1, 10, 50, 150 mpk) was “robustly increased in a dose-dependent manner”. For the same molecule, the “2,3-DPG levels in whole blood” value [3, 14] was “reduction in 2,3-DPG levels”, the “ATP levels in whole blood” value [3, 14] was “no significant changes” and the drug exposure [4] was “dose-proportional increase in exposure”. For the same molecule, the “glycolytic flux through the PKR reaction” value [5] was “significantly increased”, the half-life ([6]; both sexes, human, plasma, concentrations measured for 72 hours, read-out: mean apparent terminal half-life (t1/2)) was 17.5 to 20.5 h and the half-life ([6]; both sexes, human, plasma, concentrations measured for 120 hours, read-out: mean apparent terminal half-life (t1/2)) was 50 to 80 h. The half-life ([6]; both sexes, human, plasma, first 12 hours following dosing, read-out: apparent half-life of rapid distribution or elimination phase) was 2 to 4 h, the Tmax ([6]; both sexes, human, plasma, single oral dose, SAD cohorts, read-out: median Tmax) was 0.75 to 4 h and the “effect of food on exposure” value ([6]; fed vs fasted, preliminary results) was “minimal effect”. For the same molecule, the “exposure (mean plasma Cmax, AUC0-12 hr and AUC0-72 hr)” value ([6]; single doses, SAD cohorts 1-6) was “increased in a dose-proportional manner”, the “blood ATP levels” value ([7]; after a single dose, SAD study) was “minimal increases” and the “time for 2,3-DPG to return to placebo levels” value ([7]; after single dose) was 72 h. The “serious AEs, discontinuations due to AEs, dose-limiting toxicities” value ([8]; SAD and 2 completed MAD cohorts) was “no serious AEs, discontinuations due to AEs, or dose-limiting toxicities”, the maximum tolerated dose ([8]; single oral dose 30-2500 mg) was “not reached” and the “role of CYP3A4 in metabolism of the compound” value [9] was “major route of the oxidative metabolism”. The CYP3A4 induction ([9]; pre-clinical data) was “moderate inducer”, the “dose at which gastrointestinal AEs occurred” value ([10]; both, human, 14 days) was 700 mg q12h and the “severity of treatment-related AEs” value ([10]; both, human, 14 days) was “mild or moderate (only 1 grade 3 event)”. For the same molecule, the “subjects with related headache” value ([10]; both, human, 14 days) was 14%, the “subjects with related nausea” value ([10]; both, human, 14 days) was 14% and the “subjects with treatment related ≥1 AEs” value ([10]; both, human, 14 days) was 31%. The “subjects with ≥1 AE” value ([10]; both, human, 14 days) was 44%, the number of discontinuations [10] was “four” and the highest well-tolerated dose [11] was 360 mg q12h. The plasma exposure ([12]; 15-700 mg q12h, 120 mg q24h) was “dose dependent”, the “pharmacokinetic parameter values Day 14 compared with Day 1” value ([12]; MAD cohorts 1 and 2 (120 mg BID, 360 mg BID)) was “lower on Day 14” and the “effect on ATP levels after first dose” value ([13]; 12 hours following the first dose) was “minimal”. For the same molecule, the “ATP levels in the blood” value ([13]; Days 8-14, MAD cohorts 1 and 2) was “substantial increases”, the “2,3-DPG levels” value ([13]; after final dose, MAD cohorts 1 and 2) was “decreases in 2,3-DPG levels” and the “time ATP levels remained elevated” value ([13]; after the last dose, MAD cohorts 1 and 2) was ≥ 72 h. For the same molecule, the “dose at which decrease in 2,3-DPG and increase in ATP plateau” value ([13]; in vivo) was 360 mg q12h, the “time for 2,3-DPG decrease to reach full extent” value ([13]; of dosing) was ≤ 7 days and the “time for ATP increase to reach full extent” value ([13]; of dosing) was ≤ 10 days.
